Data: ChEMBL document CHEMBL1129817, “Novel water-soluble analogues retaining potent antitumor activity of RA-VII, a cyclic hexapeptide from Rubia plants” (Bioorg Med Chem Lett, 1997)
Converted amounts (≈) assume the structure as drawn. “And” between values parts separate entries of the source, which are not always exact repeats. Identical values can stand only once.

Columns and labels:
[1] = test system: KATO III stomach cancer cell line; experiment: Compound was evaluated for cytotoxicity against KATO-III gastric carcinoma cells; format: functional, cell-based; details: Homo sapiens
L1210 = experiment: Compound was evaluated for cytotoxicity against L1210 leukemia cells; format: functional, cell-based; details: Mus musculus
KB = experiment: Compound was evaluated for cytotoxicity against human epidermoid carcinoma of nasopharynx (KB) cells; format: functional, cell-based
B16 [2] = experiment: Compound was evaluated for percent tumor volume against B16 melanoma in mice (T) at 1.6 mg/kg intravenous administration after 11 days ot that of control (C); format: functional, Mus musculus
B16 [3] = experiment: Compound was evaluated for percent tumor volume against B16 melanoma in mice (T) at 1.6 mg/kg intravenous administration after 13 days ot that of control (C); format: functional, Mus musculus
B16 [4] = experiment: Compound was evaluated for percent tumor volume against B16 melanoma in mice (T) at 1.6 mg/kg intravenous administration after 8 days ot that of control (C); format: functional, Mus musculus
B16 [5] = experiment: Compound was evaluated for percent tumor volume against B16 melanoma in mice (T) at 3.13 mg/kg intravenous administration after 11 days ot that of control (C); format: functional, Mus musculus
B16 [6] = experiment: Compound was evaluated for percent tumor volume against B16 melanoma in mice (T) at 3.13 mg/kg intravenous administration after 13 days ot that of control (C); format: functional, Mus musculus
B16 [7] = experiment: Compound was evaluated for percent tumor volume against B16 melanoma in mice (T) at 3.13 mg/kg intravenous administration after 8 days ot that of control (C); format: functional, Mus musculus
Colon 26 [8] = experiment: Compound was evaluated for percent tumor volume against colon 26 cells in mice (T) at a dose of 1.6 mg/kg intravenous administration after 10 days ot that of control (C); format: functional, Mus musculus
Colon 26 [9] = experiment: Compound was evaluated for percent tumor volume against colon 26 cells in mice (T) at a dose of 1.6 mg/kg intravenous administration after 12 days ot that of control (C); format: functional, Mus musculus
Colon 26 [10] = experiment: Compound was evaluated for percent tumor volume against colon 26 cells in mice (T) at a dose of 1.6 mg/kg intravenous administration after 8 days ot that of control (C); format: functional, Mus musculus
Colon 26 [11] = experiment: Compound was evaluated for percent tumor volume against colon 26 cells in mice (T) at a dose of 6.25 mg/kg intravenous administration after 12 days ot that of control (C); format: functional, Mus musculus
Colon 26 [12] = experiment: Compound was evaluated for percent tumor volume against colon 26 cells in mice (T) at a dose of 6.25 mg/kg intravenous administration after 8 days ot that of control (C); format: functional, Mus musculus
Colon 26 [13] = experiment: Compound was evaluated for percent tumor volume against colon 26 cells in mice (T) at a dose of 3.13 mg/kg intravenous administration after 10 days ot that of control (C); format: functional, Mus musculus
Colon 26 [14] = experiment: Compound was evaluated for percent tumor volume against colon 26 cells in mice (T) at a dose of 3.13 mg/kg intravenous administration after 12 days ot that of control (C); format: functional, Mus musculus
Colon 26 [15] = experiment: Compound was evaluated for percent tumor volume against colon 26 cells in mice (T) at a dose of 3.13 mg/kg intravenous administration after 8 days ot that of control (C); format: functional, Mus musculus
Colon 26 [16] = experiment: Compound was evaluated for percent tumor volume against colon 26 cells in mice (T) at a dose of 6.25 mg/kg intravenous administration after 10 days ot that of control (C); format: functional, Mus musculus
P388 [17] = experiment: Percentage of the median survival time of P388 leukemic mice (T) at intraperitoneal administration of 0.4 mg/kg dose to that of controls (C); format: functional, Mus musculus
P388 [18] = experiment: Percentage of the median survival time of P388 leukemic mice (T) at intraperitoneal administration of 0.8 mg/kg dose to that of controls (C); format: functional, Mus musculus
P388 [19] = experiment: Percentage of the median survival time of P388 leukemic mice (T) at intraperitoneal administration of 1.6 mg/kg dose to that of controls (C); format: functional, Mus musculus
P388 [20] = experiment: Percentage of the median survival time of P388 leukemic mice (T) at intraperitoneal administration of 3.13 mg/kg dose to that of controls (C); format: functional, Mus musculus
P388 [21] = experiment: Percentage of the median survival time of P388 leukemic mice (T) at intraperitoneal administration of 6.25 mg/kg dose to that of controls (C); format: functional, Mus musculus
P388 [22] = experiment: Percentage of the median survival time of P388 leukemic mice (T) at intraperitoneal administration of 6.25 mg/kg dose to that of controls (C); Toxic; format: functional, organism-based; set-up: dose 6.25 mg/kg; details: Mus musculus
B16 [23] = experiment: Compound was evaluated for percent tumor volume against B16 melanoma in mice (T) at 6.25 mg/kg intravenous administration after 11 days ot that of control (C); format: functional, Mus musculus
B16 [24] = experiment: Compound was evaluated for percent tumor volume against B16 melanoma in mice (T) at 6.25 mg/kg intravenous administration after 8 days ot that of control (C); format: functional, Mus musculus
Colon 26 [25] = experiment: Compound was evaluated for percent tumor volume against colon 26 cells in mice (T) at a dose of 6.25 mg/kg intravenous administration after 12 days ot that of control (C), (Number of mice surviving / number of mice tested); T/C, 7/8; format: functional, Mus musculus
Colon 26 [26] = experiment: Compound was evaluated for percent tumor volume against colon 26 cells in mice (T) at a dose of 3.13 mg/kg intravenous administration after 10 days ot that of control (C), (Number of mice surviving / number of mice tested; T/C), 7/8; format: functional, Mus musculus
Colon 26 [27] = experiment: Compound was evaluated for percent tumor volume against colon 26 cells in mice (T) at a dose of 3.13 mg/kg intravenous administration after 12 days ot that of control (C), (Number of mice surviving / number of mice tested); T/C, 6/8; format: functional, Mus musculus
Colon 26 [28] = experiment: Compound was evaluated for percent tumor volume against colon 26 cells in mice (T) at a dose of 0.8 mg/kg intravenous administration after 10 days ot that of control (C); format: functional, Mus musculus
Colon 26 [29] = experiment: Compound was evaluated for percent tumor volume against colon 26 cells in mice (T) at a dose of 0.8 mg/kg intravenous administration after 12 days ot that of control (C); format: functional, Mus musculus
Colon 26 [30] = experiment: Compound was evaluated for percent tumor volume against colon 26 cells in mice (T) at a dose of 0.8 mg/kg intravenous administration after 8 days ot that of control (C); format: functional, Mus musculus

COc1ccc(C[C@H]2C(=O)N[C@@H](C)C(=O)N(C)[C@H]3Cc4cccc(c4)Oc4cc(ccc4OCCN(C)C)C[C@@H](C(=O)N[C@H](C)C(=O)N[C@@H](C)C(=O)N2C)N(C)C3=O)cc1 [listing 1 of 2 here]
IC50 [1]: 0.079 µg/mL (≈ 0.0954 µM) | IC50 (L1210): 0.018 µg/mL (≈ 0.0217 µM) | IC50 (KB): 0.025 µg/mL (≈ 0.0302 µM)

COc1ccc(C[C@H]2C(=O)N[C@@H](C)C(=O)N(C)[C@H]3Cc4cccc(c4)Oc4cc(ccc4OCCN4CCCC4)C[C@@H](C(=O)N[C@H](C)C(=O)N[C@@H](C)C(=O)N2C)N(C)C3=O)cc1
IC50 (KB): 0.019 µg/mL (≈ 0.0222 µM)

COc1ccc(C[C@H]2C(=O)N[C@@H](C)C(=O)N(C)[C@H]3Cc4cccc(c4)Oc4cc(ccc4OCCN4CCCCC4)C[C@@H](C(=O)N[C@H](C)C(=O)N[C@@H](C)C(=O)N2C)N(C)C3=O)cc1
IC50 (KB): 0.0087 µg/mL (≈ 0.01 µM)

COc1ccc(C[C@H]2C(=O)N[C@@H](C)C(=O)N(C)[C@H]3Cc4cccc(c4)Oc4cc(ccc4OC)C[C@@H](C(=O)N[C@H](C)C(=O)N[C@@H](C)C(=O)N2C)N(C)C3=O)cc1 [listing 1 of 2 here]
IC50 [1]: 0.0029 µg/mL (≈ 0.00376 µM) | IC50 (L1210): 0.0012 µg/mL (≈ 0.00156 µM) | IC50 (KB): 0.0023 µg/mL (≈ 0.00298 µM)

COc1ccc(C[C@H]2C(=O)N[C@@H](C)C(=O)N(C)[C@H]3Cc4cccc(c4)Oc4cc(ccc4OC)C[C@@H](C(=O)N[C@H](C)C(=O)N[C@@H](C)C(=O)N2C)N(C)C3=O)cc1 [listing 2 of 2 here]
T/C (B16 [2]): 62.4% | T/C (B16 [3]): 85.1% | T/C (B16 [4]): 65.8% | T/C (B16 [5]): 55.5% | T/C (B16 [6]): 49.9% | T/C (B16 [7]): 60% | T/C (Colon 26 [8]): 72.8% | T/C (Colon 26 [9]): 88% | T/C (Colon 26 [10]): 55.8% | T/C (Colon 26 [11]): 78% | T/C (Colon 26 [12]): 49% | T/C (Colon 26 [13]): 60.9% | T/C (Colon 26 [14]): 85.6% | T/C (Colon 26 [15]): 48% | T/C (Colon 26 [16]): 50.3% | T/C (P388 [17]): 144% | T/C (P388 [18]): 144% | T/C (P388 [19]): 152% | T/C (P388 [20]): 163%

COc1ccc(C[C@H]2C(=O)N[C@@H](C)C(=O)N(C)[C@H]3Cc4cccc(c4)Oc4cc(ccc4OCCN4CCCCCC4)C[C@@H](C(=O)N[C@H](C)C(=O)N[C@@H](C)C(=O)N2C)N(C)C3=O)cc1
T/C (P388 [17]): 112% | T/C (P388 [19]): 123% | T/C (P388 [21]): 137%

COc1ccc(C[C@H]2C(=O)N[C@H](C)C(=O)N(C)[C@H]3Cc4cccc(c4)Oc4cc(ccc4OC)C[C@@H](C(=O)N[C@H](C)C(=O)N[C@@H](C)C(=O)N2C)N(C)C3=O)cc1
T/C (P388 [22]): Toxic

CCN(CC)CCOc1ccc2cc1Oc1cccc(c1)C[C@H]1C(=O)N(C)[C@@H](C2)C(=O)N[C@H](C)C(=O)N[C@@H](C)C(=O)N(C)[C@@H](Cc2ccc(OC)cc2)C(=O)N[C@@H](C)C(=O)N1C
IC50 (KB): 0.01 µg/mL (≈ 0.0117 µM)

COc1ccc(C[C@H]2C(=O)N[C@@H](C)C(=O)N(C)[C@H]3Cc4cccc(c4)Oc4cc(ccc4OCCN(C)C)C[C@@H](C(=O)N[C@H](C)C(=O)N[C@@H](C)C(=O)N2C)N(C)C3=O)cc1 [listing 2 of 2 here]
T/C (B16 [5]): 67.9% | T/C (B16 [6]): 140.5% | T/C (B16 [7]): 77.2% | T/C (B16 [23]): 40.8% | T/C (B16 [24]): 57% and 40.8% | T/C (Colon 26 [8]): 76.7% | T/C (Colon 26 [9]): 102.5% | T/C (Colon 26 [10]): 84.1% | T/C (Colon 26 [25]): 125.5% | T/C (Colon 26 [12]): 48.1% | T/C (Colon 26 [26]): 55.8% | T/C (Colon 26 [27]): 101.5% | T/C (Colon 26 [15]): 54.4% | T/C (Colon 26 [16]): 70% | T/C (P388 [17]): 127% | T/C (P388 [19]): 145% | T/C (P388 [21]): 153%

COc1ccc(C[C@H]2C(=O)N[C@@H](C)C(=O)N(C)[C@H]3Cc4cccc(c4)Oc4cc(ccc4OCCN(C(C)C)C(C)C)C[C@@H](C(=O)N[C@H](C)C(=O)N[C@@H](C)C(=O)N2C)N(C)C3=O)cc1
T/C (B16 [2]): 43.3% | T/C (B16 [3]): 69.7% | T/C (B16 [4]): 55.9% | T/C (B16 [5]): 32.1% | T/C (B16 [7]; 3.13 mg/kg): 57.5% and 32.1% | T/C (Colon 26 [28]): 83.4% | T/C (Colon 26 [29]): 136.3% | T/C (Colon 26 [8]): 57.1% | T/C (Colon 26 [9]): 143.1% | T/C (Colon 26 [10]): 41.5% | T/C (Colon 26 [30]): 42.1% | T/C (Colon 26 [13]): 38.5% | T/C (Colon 26 [14]): 99.6% | T/C (Colon 26 [15]): 34.5% | T/C (P388 [17]): 151% | T/C (P388 [19]): 157% | T/C (P388 [21]): 170%
